Experiments:
human factor XIa = target: T1, human factor XIa (Homo sapiens, UniProt P03951); test: Measurement of FXIa inhibition (fluorogenic peptide substrate, AMC cleavage); type: biochemical; conditions: factor XIa from Kordia 0.45 nM; substrate Boc-Glu(OBzl)-Ala-Arg-AMC 10 μM; 30 min at 22° C.; in some cases averages from multiple determinations
T1 construct: purchased Kordia
Method: (§1) The factor XIa inhibition of the substances according to the invention is determined using a biochemical test system which utilizes the reaction of a peptidic factor XIa substrate to determine the enzymatic activity of human factor XIa. Here, factor XIa cleaves from the peptic factor XIa substrate the C-terminal aminomethylcoumarin (AMC), the fluorescence of which is measured. The determinations are conducted in microtitre plates.
Test substances are dissolved in dimethyl sulfoxide and serially diluted in dimethyl sulfoxide (3000 μM to 0.0078 μM; resulting final concentrations in the test: 50 μM to 0.00013 μM). 1 μl of the diluted substance solutions is placed into each of the wells of white microtitre plates from Greiner (384 wells). 20 μl of assay buffer (50 mM of Tris/HCl pH 7.4; 100 mM of sodium chloride; 5 mM of calcium chloride; 0.1% of bovine serum albumin) and 20 μl of factor XIa from Kordia (0.45 nM in assay buffer) are then added successively. After 15 min of incubation, the enzyme reaction is started by addition of 20 μl of the factor XIa substrate Boc-Glu(OBzl)-Ala-Arg-AMC dissolved in assay buffer (10 μM in assay buffer) from Bachem, the mixture is incubated at room temperature (22° C.) for 30 min and fluorescence is then measured (excitation: 360 nm, emission: 460 nm). The measured emissions of the test batches with test substance are compared to those of control batches without test substance (only dimethyl sulfoxide instead of test substance in dimethyl sulfoxide), and IC50 values are calculated from the concentration/activity relationships. Activity data from this test are given in Table A below (in some cases as averages from multiple individual determinations): […]

human plasma kallikrein = target: T2, human plasma kallikrein (Homo sapiens, UniProt P03952); test: Determination of the plasma kallikrein activity (fluorogenic peptide substrate, AMC cleavage); type: biochemical; conditions: plasma kallikrein from Kordia 0.6 nM; substrate H-Pro-Phe-Arg-AMC 10 μM; 30 min at 22° C.; in some cases averages from multiple determinations
T2 construct: purchased Kordia
Method: as §1, with “To determine the plasma kallikrein” for “The factor XIa”, “invention,” for “invention is determined using”, “system is used” for “system”, “plasma kallikrein” for “factor XIa”, “plasma kallikrein.” for “factor XIa.”
Test substances are dissolved in dimethyl sulfoxide and serially diluted in dimethyl sulfoxide (3000 μM to 0.0078 μM; resulting final concentrations in the test: 50 μM to 0.00013 μM). 1 μl of the diluted substance solutions is placed into each of the wells of white microtitre plates from Greiner (384 wells). 20 μl of assay buffer (50 mM Tris/HCl pH 7.4; 100 mM sodium chloride solution; 5 mM calcium chloride solution; 0.1% of bovine serum albumin) and 20 μl of plasma kallikrein from Kordia (0.6 nM in assay buffer) are then added successively. After 15 min of incubation, the enzyme reaction is started by addition of 20 μl of the substrate H-Pro-Phe-Arg-AMC dissolved in assay buffer (10 μM in assay buffer) from Bachem, the mixture is incubated at room temperature (22° C.) for 30 min and fluorescence is then measured (excitation: 360 nm, emission: 460 nm). The measured emissions of the test batches with test substance are compared to those of control batches without test substance (only dimethyl sulfoxide instead of test substance in dimethyl sulfoxide), and IC50 values are calculated from the concentration/activity relationships. Activity data from this test are given in Table B below (in some cases as averages from multiple individual determinations): […]

T2 sequence (P03952 391-638 limits assumed): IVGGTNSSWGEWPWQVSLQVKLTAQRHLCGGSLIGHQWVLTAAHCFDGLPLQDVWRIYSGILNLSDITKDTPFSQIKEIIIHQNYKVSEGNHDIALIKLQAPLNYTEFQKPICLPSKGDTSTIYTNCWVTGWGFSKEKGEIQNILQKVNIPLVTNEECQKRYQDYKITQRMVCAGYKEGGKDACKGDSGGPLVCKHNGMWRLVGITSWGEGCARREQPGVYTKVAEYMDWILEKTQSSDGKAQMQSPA
T2 sequence (P03952 20-390 partner limits assumed): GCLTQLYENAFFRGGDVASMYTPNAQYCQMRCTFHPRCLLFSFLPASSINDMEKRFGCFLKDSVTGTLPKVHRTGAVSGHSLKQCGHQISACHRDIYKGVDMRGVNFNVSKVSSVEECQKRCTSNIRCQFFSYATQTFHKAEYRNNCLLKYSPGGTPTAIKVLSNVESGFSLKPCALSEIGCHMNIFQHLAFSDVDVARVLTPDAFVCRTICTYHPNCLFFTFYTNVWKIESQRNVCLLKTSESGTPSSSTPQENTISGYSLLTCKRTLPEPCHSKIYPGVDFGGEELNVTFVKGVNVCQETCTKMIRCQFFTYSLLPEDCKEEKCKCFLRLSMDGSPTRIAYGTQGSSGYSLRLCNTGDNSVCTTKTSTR
T1 sequence (P03951 388-625 limits assumed): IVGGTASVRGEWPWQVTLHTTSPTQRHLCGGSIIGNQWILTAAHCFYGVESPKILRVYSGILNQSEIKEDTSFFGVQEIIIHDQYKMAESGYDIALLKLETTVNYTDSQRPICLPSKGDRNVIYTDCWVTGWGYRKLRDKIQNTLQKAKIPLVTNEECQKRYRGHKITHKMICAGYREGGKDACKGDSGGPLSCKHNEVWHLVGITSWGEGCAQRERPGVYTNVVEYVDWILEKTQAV
T1 sequence (P03951 19-387 partner limits assumed): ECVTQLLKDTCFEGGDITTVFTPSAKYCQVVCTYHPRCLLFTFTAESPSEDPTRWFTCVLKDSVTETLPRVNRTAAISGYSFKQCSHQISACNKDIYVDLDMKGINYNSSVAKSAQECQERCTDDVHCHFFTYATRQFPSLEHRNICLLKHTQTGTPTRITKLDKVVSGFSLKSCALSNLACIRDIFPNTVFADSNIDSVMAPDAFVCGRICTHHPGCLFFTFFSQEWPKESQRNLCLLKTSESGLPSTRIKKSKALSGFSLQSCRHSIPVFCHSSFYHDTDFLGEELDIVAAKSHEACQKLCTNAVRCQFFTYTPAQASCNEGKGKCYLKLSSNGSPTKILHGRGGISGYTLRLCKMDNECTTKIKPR

IC50 (human factor XIa) [nM] | IC50 (human plasma kallikrein) [nM] | SMILES
0.41 | 19 | COc1cn([C@@H](C[C@@H]2CCCCO2)C(=O)Nc2ccc(C(=O)O)cc2)c(=O)cc1-c1cc(Cl)ccc1OCC(F)(F)F (single isomer, unassigned) [Example 78]
36 | 180 | CCCC(C(=O)Nc1ccc(C(=O)NC)nc1)n1cc(OC)c(-c2cc(Cl)ccc2OCC(F)(F)F)cc1=O (racemic) [Example 66, 5-{[2-{4-[5-Chloro-2-(2,2,2-trifluoroethoxy)phenyl]-5-methoxy-2-oxopyridin-1(2H)-yl}pentanoyl]amino}-N-methylpyridine-2-carboxamide]
0.82 | 47 | COc1cn(C(CC2COCCO2)C(=O)Nc2ccc(C(=O)O)cc2)c(=O)cc1-c1cc(Cl)ccc1OCC(F)(F)F (stereo not drawn) [Example 17, 4-{[2-{4-[5-Chloro-2-(2,2,2-trifluoroethoxy)phenyl]-5-methoxy-2-oxopyridin-1(2H)-yl}-3-(1,4-dioxan-2-yl)propanoyl]amino}benzoic acid]
7.1 | 120 | COc1cn(C(C[C@H](C)OC)C(=O)Nc2ccc(C(N)=O)nc2)c(=O)cc1-c1cc(Cl)ccc1OCC(F)(F)F (stereo partly drawn) [Example 56, 5-[[(4S)-2-[4-[5-Chloro-2-(2,2,2-trifluoroethoxy)phenyl]-5-methoxy-2-oxo-1-pyridyl]-4-methoxypentanoyl]amino]pyridine-2-carboxamide]
0.28 | 15 | COCCC(C(=O)Nc1ccc(C(=O)O)cc1)n1cc(OC)c(-c2cc(Cl)ccc2OCC(F)(F)F)cc1=O (single isomer, unassigned) [Example 2, 4-[(2-{4-[5-Chloro-2-(2,2,2-trifluoroethoxy)phenyl]-5-methoxy-2-oxopyridin-1(2H)-yl}-4-methoxybutanoyl)amino]benzoic acid]
4.1 | 33 | COCCC(C(=O)Nc1ccc2nn(C)cc2c1)n1cc(OC)c(-c2cc(Cl)ccc2OCC(F)(F)F)cc1=O (racemic) [Example 5, 2-{4-[5-Chloro-2-(2,2,2-trifluoroethoxy)phenyl]-5-methoxy-2-oxopyridin-1(2H)-yl}-4-methoxy-N-(2-methyl-2H-indazol-5-yl)butanamide]
25 | 130 | COc1cn(C(CCOC(C)C)C(=O)Nc2ccc(C(N)=O)c(F)c2)c(=O)cc1-c1cc(Cl)ccc1OCC(F)(F)F (racemic) [Example 41, 4-[(2-{4-[5-Chloro-2-(2,2,2-trifluoroethoxy)phenyl]-5-methoxy-2-oxopyridin-1(2H)-yl}-4-isopropoxybutanoyl)amino]-2-fluorobenzamide]
0.9 | 33 | COc1cn(C(C[C@@H]2CCCCO2)C(=O)Nc2ccc(C(=O)O)cc2)c(=O)cc1-c1cc(Cl)ccc1OCC(F)(F)F (stereo partly drawn) [Example 49, 4-[(2-{4-[5-Chloro-2-(2,2,2-trifluoroethoxy)phenyl]-5-methoxy-2-oxopyridin-1(2H)-yl}-3-[(2S)-tetrahydro-2H-pyran-2-yl]propanoyl)amino]benzoic acid]
1.2 | 55 | COCCC(C(=O)Nc1ccc(C(=O)O)cc1)n1cc(OC)c(-c2cc(Cl)ccc2OCC(F)(F)F)cc1=O (racemic) [Example 1, 4-[(2-{4-[5-Chloro-2-(2,2,2-trifluoroethoxy)phenyl]-5-methoxy-2-oxopyridin-1(2H)-yl}-4-methoxybutanoyl)amino]benzoic acid]
36 | 59 | CCCC(C(=O)Nc1ccc2nccnc2c1)n1cc(OC)c(-c2cc(Cl)ccc2OCC(F)(F)F)cc1=O (racemic) [Example 64, N-(Quinoxalin-6-yl)-2-{4-[5-chloro-2-(2,2,2-trifluoroethoxy)phenyl]-5-methoxy-2-oxopyridin-1(2H)-yl}pentanamide]

Continued, compound first:

SMILES | IC50 (human factor XIa) [nM] | IC50 (human plasma kallikrein) [nM]
COc1cn(C(C[C@@H]2CCCCO2)C(=O)Nc2ccc3nc(C(=O)O)cn3c2)c(=O)cc1-c1cc(Cl)ccc1OCC(F)(F)F (stereo partly drawn) [Example 77] | 2.2 | 23
COc1cn(C(C[C@@H]2CCCCO2)C(=O)Nc2ccc(C(N)=O)nc2)c(=O)cc1-c1cc(Cl)ccc1OCC(F)(F)F (stereo partly drawn) [Example 54] | 3 | 90
COc1cn(C(CCOC(C)(C)C)C(=O)Nc2ccc(C(=O)O)cc2)c(=O)cc1-c1cc(Cl)ccc1OCC(F)(F)F (single isomer, unassigned) [Example 8, 4-[(4-tert-Butoxy-2-{4-[5-chloro-2-(2,2,2-trifluoroethoxy)phenyl]-5-methoxy-2-oxopyridin-1(2H)-yl}butanoyl)amino]benzoic acid] | 0.94 | 19
COc1cn(C(CCOC(C)(C)C)C(=O)Nc2ccc(C(N)=O)c(F)c2)c(=O)cc1-c1cc(Cl)ccc1OCC(F)F (racemic) [Example 26, 4-[(4-tert-Butoxy-2-{4-[5-chloro-2-(2,2-difluoroethoxy)phenyl]-5-methoxy-2-oxopyridin-1(2H)-yl}butanoyl)amino]-2-fluorobenzamide] | 25 | 150
COc1cn(C(Cc2ccn(C)n2)C(=O)Nc2ccc(C(N)=O)c(F)c2)c(=O)cc1-c1cc(Cl)ccc1OCC(F)(F)F (racemic) [Example 16, 4-{[2-{4-[5-Chloro-2-(2,2,2-trifluoroethoxy)phenyl]-5-methoxy-2-oxopyridin-1 (2H)-yl}-3-(1-methyl-1H-pyrazol-3-yl)propanoyl]amino}-2-fluorobenzamide] | 10 | 67
COc1cn(C(C[C@H]2CCCCO2)C(=O)Nc2ccc(C(N)=O)c(F)c2)c(=O)cc1-c1cc(Cl)ccc1OCC(F)(F)F (stereo partly drawn) [Example 23, 4-[(2-{4-[5-Chloro-2-(2,2,2-trifluoroethoxy)phenyl]-5-methoxy-2-oxopyridin-1(2H)-yl}-3-[(2R)-tetrahydro-2H-pyran-2-yl]propanoyl)amino]-2-fluorobenzamide] | 34 | 340
COc1cn(C(CCOC(C)(C)C)C(=O)Nc2ccc(C(=O)O)s2)c(=O)cc1-c1cc(Cl)ccc1OCC(F)(F)F (racemic) [Example 75, 5-{[4-tert-Butoxy-2-{4-[5-chloro-2-(2,2,2-trifluoroethoxy)phenyl]-5-methoxy-2-oxopyridin-1(2H)-yl}butanoyl]amino}thiophene-2-carboxylic acid] | 2.5 | 19
CNC(=O)c1ccc(NC(=O)C(CCOC(C)(C)C)n2cc(OC)c(-c3cc(Cl)ccc3OCC(F)(F)F)cc2=O)cn1 (racemic) [Example 12, 5-[(4-tert-Butoxy-2-{4-[5-chloro-2-(2,2,2-trifluoroethoxy)phenyl]-5-methoxy-2-oxopyridin-1(2H)-yl}butanoyl)amino]-N-methylpyridine-2-carboxamide] | 12 | 60
COc1cn(C(CC2COCCO2)C(=O)Nc2ccc3nn(C)cc3c2)c(=O)cc1-c1cc(Cl)ccc1OCCF (stereo not drawn) [Example 48, 2-{4-[5-Chloro-2-(2-fluoroethoxy)phenyl]-5-methoxy-2-oxopyridin-1(2H)-yl}-3-(1,4-dioxan-2-yl)-N-(2-methyl-2H-indazol-5-yl)propanamide] | 15 | 150
COc1cn(C(C[C@H]2CCCCO2)C(=O)Nc2ccc3nn(C)cc3c2)c(=O)cc1-c1cc(Cl)ccc1OCC(F)(F)F (stereo partly drawn) [Example 21, 2-{4-[5-Chloro-2-(2,2,2-trifluoroethoxy)phenyl]-5-methoxy-2-oxopyridin-1(2H)-yl}-N-(2-methyl-2H-indazol-5-yl)-3-[(2R)-tetrahydro-2H-pyran-2-yl]propanamide] | 16 | 150
COc1cc(NC(=O)[C@H](CCOC(C)(C)C)n2cc(OC)c(-c3cc(Cl)ccc3OCC(F)(F)F)cc2=O)ccc1C(=O)O (single isomer, unassigned) [Example 70, 4-{[4-tert-Butoxy-2-{4-[5-chloro-2-(2,2,2-trifluoroethoxy)phenyl]-5-methoxy-2-oxopyridin-1(2H)-yl}butanoyl]amino}-2-methoxybenzoic acid] | 1.3 | 58

From patent publication US20180250280A1 (BAYER PHARMA AKTIENGESELLSCHAFT, priority 2015, published 2018)
